Data reported in US20260242478A1, “ANTIBODIES FOR TARGETING PSMA AND CD28 AND USES THEREOF” (Janux Therapeutics, Inc., priority 2023, published 2026).

Assays:
[1] = tested on: PSMA Fab (SEQ ID NOs: 19, 20) binding to the PSMA antigen; assay: Inhibition of PSMA Fab binding to PSMA by peptides, competition ELISA (incl. alanine scanning); parameters: key to Mutation Status: tolerant (T); somewhat tolerant (ST); intolerant (IT)
Experimental: PSMA Fab fixed at 0.3 nanomolar (nM) concentration was pre-incubated with 0-100 micromolar (μM) titrated peptides. After a short pre-incubation period, the mixture of titrated peptide with fixed PSMA Fab were added to the PSMA antigen coated plates. After a short incubation on the plates, bound PSMA Fab was detected with a standard horse radish peroxidase conjugated secondary antibody.
The tables also designate each alanine mutation as tolerant (T), somewhat tolerant (ST), or intolerant (IT) based on changes in binding inhibition ability relative to the non-mutated peptide. Cys-5 and Cys-11 of peptide-179 and peptide-180 were not mutated.

[2] = biological target: anti-CD28 Fab (SEQ ID NOs: 696, 697); assay: anti-CD28 Fab binding to peptides, ELISA; conditions: Table 24; anti-CD28 Fab
[3] = biological target: anti-CD28 scFv (disulfide) (SEQ ID NO: 10); assay: anti-CD28 scFv (disulfide) binding to peptides, ELISA; conditions: Table 27
Experimental: Peptides were evaluated for their ability to bind to ant-CD28 Fab (SEQ ID NOs: 696.697) or anti-CD28 scFv (disulfide) (SEQ ID NO: 10) in a standard ELISA format as described above.

[4] = biological target: PSMA Fab (SEQ ID NOs: 19, 20); assay: PSMA Fab binding to peptides, ELISA; conditions: PSMA Fab binding to biotinylated peptide, ELISA
Experimental: Peptides of Table 9 were evaluated for their ability to bind to PSMA Fab in a standard enzyme linked immunosorbent assay (ELISA) format. […] PSMA Fab diluted in buffer was then added to the peptide captured plates. Bound antibody was detected using a standard horse radish peroxidase conjugate secondary antibody.

[5] = Table 41, alanine scanning of Peptide-180, change in binding inhibition relative to non-mutated peptide
[6] = Table 40, alanine scanning of Peptide-179, change in binding inhibition relative to non-mutated peptide
[7] = Table 38, PSMA Fab fixed at 0.3 nM, peptide 0-100 μM
[8] = Table 39, PSMA Fab fixed at 0.3 nM, peptide 0-100 μM
[9] = Table 41, competition binding ELISA, alanine scanning sequences of Peptide-180
[10] = Table 37, PSMA Fab fixed at 0.3 nM, peptide 0-100 μM
[11] = Table 40, competition binding ELISA, alanine scanning sequences of Peptide-179

Chain of anti-CD28 Fab (SEQ ID NOs: 696, 697) (as listed by the source): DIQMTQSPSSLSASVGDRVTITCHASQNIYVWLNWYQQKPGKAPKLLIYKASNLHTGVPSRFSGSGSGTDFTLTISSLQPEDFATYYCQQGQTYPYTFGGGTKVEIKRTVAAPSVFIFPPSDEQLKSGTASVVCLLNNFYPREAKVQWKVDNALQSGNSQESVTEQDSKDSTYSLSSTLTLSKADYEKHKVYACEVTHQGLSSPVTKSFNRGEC
Chain of anti-CD28 Fab (SEQ ID NOs: 696, 697) (as listed by the source): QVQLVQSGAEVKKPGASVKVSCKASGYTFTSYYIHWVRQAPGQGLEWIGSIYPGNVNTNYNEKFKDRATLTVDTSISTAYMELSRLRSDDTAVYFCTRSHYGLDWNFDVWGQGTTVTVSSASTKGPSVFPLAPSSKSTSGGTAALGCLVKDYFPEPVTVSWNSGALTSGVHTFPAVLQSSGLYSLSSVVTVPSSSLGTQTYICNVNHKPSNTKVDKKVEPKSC
Chain of PSMA Fab (SEQ ID NOs: 19, 20) (as listed by the source): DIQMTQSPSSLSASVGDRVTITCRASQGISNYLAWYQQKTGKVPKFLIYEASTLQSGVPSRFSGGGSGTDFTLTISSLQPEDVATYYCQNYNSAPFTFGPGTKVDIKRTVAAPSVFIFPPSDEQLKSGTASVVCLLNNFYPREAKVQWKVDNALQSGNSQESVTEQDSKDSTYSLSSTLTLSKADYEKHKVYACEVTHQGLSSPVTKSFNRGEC
Chain of PSMA Fab (SEQ ID NOs: 19, 20) (as listed by the source): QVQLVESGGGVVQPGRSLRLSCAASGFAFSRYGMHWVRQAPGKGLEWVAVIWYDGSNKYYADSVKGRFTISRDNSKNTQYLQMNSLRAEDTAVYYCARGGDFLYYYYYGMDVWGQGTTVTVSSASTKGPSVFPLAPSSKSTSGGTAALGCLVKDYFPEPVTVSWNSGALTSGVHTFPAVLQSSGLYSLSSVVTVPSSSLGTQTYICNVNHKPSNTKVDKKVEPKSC
Chain of PSMA Fab (SEQ ID NOs: 19, 20) binding to the PSMA antigen (Q04609 whole entry partner): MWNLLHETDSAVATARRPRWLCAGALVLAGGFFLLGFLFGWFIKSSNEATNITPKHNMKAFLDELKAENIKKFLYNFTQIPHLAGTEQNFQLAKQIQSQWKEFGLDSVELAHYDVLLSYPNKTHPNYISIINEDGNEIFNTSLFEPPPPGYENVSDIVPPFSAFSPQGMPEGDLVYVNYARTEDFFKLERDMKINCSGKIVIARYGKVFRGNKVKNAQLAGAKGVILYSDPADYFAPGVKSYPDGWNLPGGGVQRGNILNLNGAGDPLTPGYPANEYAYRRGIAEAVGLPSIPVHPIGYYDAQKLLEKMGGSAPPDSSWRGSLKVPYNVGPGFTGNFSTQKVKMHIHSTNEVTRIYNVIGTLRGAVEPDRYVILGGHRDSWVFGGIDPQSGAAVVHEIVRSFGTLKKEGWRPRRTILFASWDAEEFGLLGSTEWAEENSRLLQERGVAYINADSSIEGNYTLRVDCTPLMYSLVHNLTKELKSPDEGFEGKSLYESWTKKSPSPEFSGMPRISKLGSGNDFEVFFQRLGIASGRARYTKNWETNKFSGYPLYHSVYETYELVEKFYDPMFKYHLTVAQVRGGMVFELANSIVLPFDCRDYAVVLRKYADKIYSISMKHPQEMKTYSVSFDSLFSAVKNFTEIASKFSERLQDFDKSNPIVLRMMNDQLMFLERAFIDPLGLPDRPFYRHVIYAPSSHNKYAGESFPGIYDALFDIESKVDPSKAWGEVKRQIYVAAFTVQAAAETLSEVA
Chain of anti-CD28 scFv (disulfide) (SEQ ID NO: 10) (as listed by the source): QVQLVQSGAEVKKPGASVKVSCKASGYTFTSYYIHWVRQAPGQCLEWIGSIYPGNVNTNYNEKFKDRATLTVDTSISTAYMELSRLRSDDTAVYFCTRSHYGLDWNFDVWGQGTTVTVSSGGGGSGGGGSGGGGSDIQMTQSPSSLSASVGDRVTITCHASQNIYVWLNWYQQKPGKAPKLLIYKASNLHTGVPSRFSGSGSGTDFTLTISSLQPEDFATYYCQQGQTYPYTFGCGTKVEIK

## AAVLCQPNWMCAGF [Peptide-251]
[1]; [5]
  Mutation Status: T

## ACDTYFAGMINECF [Peptide-79]
[2]
  EC50: 0.097 µM
[3]
  EC50: 0.0732 µM

## ACHSLVLKHHLQKC [Peptide-176]
[4]; Table 37
  EC50: > 1 µM

## AMKWCTPRWMCAAE [Peptide-241]
[1]; [6]
  Mutation Status: T

## DCFYAADIHWNYCN [Peptide-157]
[4]; Table 37
  EC50: > 1 µM

## DCPWLSGFSRPLLC [Peptide-93]
[2]
  EC50: > 1 µM
[3]
  EC50: > 1 µM

## DCWWMFESYPGRCI [Peptide-86]
[2]
  EC50: > 1 µM
[3]
  EC50: > 1 µM

## ECHWSMWAVGHACF [Peptide-83]
[2]
  EC50: > 1 µM
[3]
  EC50: > 1 µM

## EGCLTLVDGRAWCW [Peptide-173]
[4]; Table 37
  EC50: > 1 µM

## EPKWCVPRGLCNYD [Peptide-240]
[1]; Table 43, SAR guided optimization phage library of peptide-179
  IC50: > 100 µM

## FCGWMDGDVFWFCG [Peptide-171]
[4]; Table 37
  EC50: > 1 µM

## FCNWVDGDVWVVCK [Peptide-172]
[4]; Table 37
  EC50: > 1 µM

## FCQWIEATNAWLCY [Peptide-170]
[4]; Table 37
  EC50: > 1 µM

## FGHCAGSPVFCAYW [Peptide-168]
[4]; Table 37
  EC50: > 1 µM

## FMCLPQNPHPLCFK [Peptide-77]
[2]
  EC50: > 1 µM
[3]
  EC50: > 1 µM

## FVCWTFGEHIKVCR [Peptide-186]
[4]; Table 38
  EC50: > 3 µM
[1]; [7]
  IC50: > 100 µM

## FVPCIPSHWLCPIW [Peptide-191]
[1]; [8]
  IC50: > 100 µM

## FWECYSSFCRFVEG [Peptide-196]
[1]; [8]
  IC50: > 100 µM

## GCQYPWAFDAMSCP [Peptide-80]
[2]
  EC50: > 1 µM
[3]
  EC50: > 1 µM

## HCEFHDYQSCDVLY [Peptide-211]
[1]; [8]
  IC50: > 100 µM

## HCKFHDYHSWYMCY [Peptide-175]
[4]; Table 37
  EC50: > 1 µM

## HCLGPALGPVDGDC [Peptide-189]
[4]; Table 38
  EC50: > 3 µM
[1]; [7]
  IC50: > 100 µM

## HCLWHESSGRVLCF [Peptide-192]
[1]; [8]
  IC50: > 100 µM

## HLFCWEGSDRCAWV [Peptide-165]
[4]; Table 37
  EC50: > 1 µM

## IAALCQPNWMCAGF [Peptide-252]
[1]; [5]
  Mutation Status: T

## IAVACQPNWMCAGF [Peptide-253]
[1]; [5]
  Mutation Status: ST

## IAVLCAPNWMCAGF [Peptide-254]
[1]; [5]
  Mutation Status: T

## IAVLCQANWMCAGF [Peptide-255]
[1]; [5]
  Mutation Status: IT
[1]; [9]
  IC50: > 100 µM

## IAVLCQPAWMCAGF [Peptide-256]
[1]; [5]
  Mutation Status: T

## IAVLCQPNAMCAGF [Peptide-257]
[1]; [5]
  Mutation Status: IT
[1]; [9]
  IC50: > 100 µM

## IAVLCQPNWACAGF [Peptide-258]
[1]; [5]
  Mutation Status: IT
[1]; [9]
  IC50: > 100 µM

## IAVLCQPNWMCAAF [Peptide-259]
[1]; [5]
  Mutation Status: ST

## IAVLCQPNWMCAGA [Peptide-260]
[1]; [5]
  Mutation Status: ST

## ICQWIGATNAWVCY [Peptide-164]
[4]; Table 37
  Binding EC50: high background
[1]; [10]
  IC50: > 100 µM

## IECAYMTDQRFWCW [Peptide-188]
[4]; Table 38
  EC50: > 3 µM

## ILCGLYEALVSECG [Peptide-187]
[4]; Table 38
  EC50: > 3 µM
[1]; [7]
  IC50: > 100 µM

## IRCVGEGHDLVCIF [Peptide-162]
[4]; Table 37
  EC50: > 1 µM

## IRCVGEGHDLVCIF [Peptide-184]
[4]; Table 38
  EC50: > 3 µM
[1]; [7]
  IC50: > 100 µM

## LAKWCTPRWMCAAE [Peptide-242]
[1]; [6]
  Mutation Status: T

## LCEWWTSHVDAWCA [Peptide-213]
[1]; [8]
  IC50: > 100 µM

## LCQWYPKFHWMDCD [Peptide-210]
[1]; [8]
  IC50: > 100 µM

## LMKACTPRWMCAAE [Peptide-244]
[1]; [6]
  Mutation Status: ST

## LMKWCAPRWMCAAE [Peptide-245]
[1]; [6]
  Mutation Status: ST

## LMKWCTARWMCAAE [Peptide-246]
[1]; [6]
  Mutation Status: IT
[1]; [11]
  IC50: > 100 µM

## LMKWCTPAWMCAAE [Peptide-247]
[1]; [6]
  Mutation Status: T

## LMKWCTPRAMCAAE [Peptide-248]
[1]; [6]
  Mutation Status: IT
[1]; [11]
  IC50: > 100 µM

## LMKWCTPRWACAAE [Peptide-249]
[1]; [6]
  Mutation Status: IT
[1]; [11]
  IC50: > 100 µM

## LMKWCTPRWMC [Peptide-250]
[1]; [6]
  Mutation Status: T
[1]; [11]
  IC50: 6.64 µM

## MCFVTGWGVPDDCN [Peptide-208]
[1]; [8]
  IC50: > 100 µM

## MEYCSFHRFTCVLW [Peptide-174]
[4]; Table 37
  EC50: > 1 µM

## MEYCSFHRFTCVLW [Peptide-183]
[1]; [7]
  IC50: > 100 µM

## MEYCSFHRFTCVLW [Peptide-193]
[1]; [8]
  IC50: > 100 µM

## NAHCWLWVPAHCRV [Peptide-167]
[4]; Table 37
  EC50: > 1 µM
[1]; [10]
  IC50: > 100 µM

## NCFFAADIHWNFCT [Peptide-169]
[4]; Table 37
  EC50: > 1 µM

## NCWWHDFRAGHVVC [Peptide-161]
[4]; Table 37
  EC50: > 1 µM

## PDCHTILFKPWCVR [Peptide-90]
[2]
  EC50: > 1 µM
[3]
  EC50: > 1 µM

## PDCQTILFKPWCVR [Peptide-78]
[2]
  EC50: > 1 µM
[3]
  EC50: > 1 µM

## PDCVYHSFWGYSCR [Peptide-178]
[4]; Table 37
  EC50: > 1 µM

## PELRCVPFWMCSFN [Peptide-181]
[4]; Table 38
  EC50: 0.003 µM

## PLCGTEEVWWECRL [Peptide-166]
[4]; Table 37
  EC50: > 1 µM

## PLCGTEEVWWECRL [Peptide-197]
[1]; [8]
  IC50: > 100 µM

## Peptide-2687 (LMAWCTPRWMCAAE)
[1]; [6]
  Mutation Status: ST

## SCFSFARLEVVPCD [Peptide-159]
[4]; Table 37
  EC50: > 1 µM

## SCGWLRGEEFGWWC [Peptide-177]
[4]; Table 37
  EC50: > 1 µM

## SCGWLRGEEFGWWC [Peptide-190]
[4]; Table 38
  EC50: > 3 µM
[1]; [7]
  IC50: > 100 µM

## SIPCIPRDWLCPIK [Peptide-163]
[4]; Table 37
  EC50: > 1 µM

## SIPCIPRDWLCPIK [Peptide-182]
[4]; Table 38
  EC50: > 3 µM
[1]; [7]
  IC50: > 100 µM

## TCLRFADLAIIHCD [Peptide-160]
[4]; Table 37
  EC50: > 1 µM

## VEVKCFPLWFCVGL [Peptide-275]
[1]; Table 42, SAR guided optimization phage library of peptide-180
  IC50: > 100 µM

## WCWDYKLWVPMTCP [Peptide-85]
[2]
  EC50: > 1 µM
[3]
  EC50: > 1 µM

## WCWDYKLWVPTQCP [Peptide-81]
[2]
  EC50: > 1 µM
[3]
  EC50: > 1 µM

## WCWDYREWVPMTCP [Peptide-82]
[2]
  EC50: > 1 µM
[3]
  EC50: > 1 µM

## WCWVQDDRRHVVCG [Peptide-201]
[1]; [8]
  IC50: > 100 µM

## WCWYYREWVPMTCP [Peptide-88]
[2]
  EC50: > 1 µM
[3]
  EC50: > 1 µM

## WECLKYTEANACTY [Peptide-76]
[2]
  EC50: > 1 µM
[3]
  EC50: > 1 µM

## WICDKSGSIMLCRA [Peptide-91]
[2]
  EC50: > 1 µM
[3]
  EC50: > 1 µM

## YCAGHSPINIGKCL [Peptide-84]
[2]
  EC50: 0.337 µM
[3]
  EC50: > 1 µM

## YCAGMSTIQLWLKC [Peptide-94]
[2]
  EC50: > 1 µM
[3]
  EC50: > 1 µM

## YCWVDADMWLIFRC [Peptide-199]
[1]; [8]
  IC50: > 100 µM

## YECHQGLFHRWCVN [Peptide-158]
[4]; Table 37
  Binding EC50: high background

## YECHQGLFHRWCVN [Peptide-185]
[4]; Table 38
  EC50: > 3 µM

## YWSCFQIPFTCFYF [Peptide-75]
[2]
  EC50: > 1 µM
[3]
  EC50: > 1 µM

## YWYCSPSIVRCVLV [Peptide-89]
[2]
  EC50: > 1 µM
[3]
  EC50: > 1 µM
